The source of these data is US6362134B1, “Herbicidal 1,2,4,6-thiatriazines” (Syngenta Investment Corporation, priority 1996, dated 2002).

Common to all, as to format: in vivo
Experiment [1] deals with Sinapis. The experiment can be described thus: Herbicidal action before emergence of the plants (pre-emergent action). More on the design: key: 1=complete damage; 9=no action; Ratings of 1 to 4 (in particular 1 to 3) mean a good to very good herbicidal action. The following applies: 2000 g of active substance/ha, sprayed immediately after sowing, evaluated after 3 weeks, ratings scale of nine levels. As to the method:
(§1) Monocotyledon and dicotyledon test plants are sown in standard soil in plastic pots. Immediately after sowing, the test substances are sprayed on (500 l of water/ha) in an aqueous suspension prepared from a 25% wettable powder (Example F3, b)), corresponding to a dosage of 2000 g of active substance/ha. The test plants are then grown under optimum conditions in a greenhouse. After a test period of 3 weeks, the test is evaluated with a ratings scale of nine levels (1=complete damage, 9=no action). Ratings of 1 to 4 (in particular 1 to 3) mean a good to very good herbicidal action.
(§2) Test plants: Avena, Setaria, Sinapis, Stellaria

The subject of experiment [2] is Stellaria. Described as above. More on the design: key: 1=complete damage; 9=no action; Ratings of 1 to 4 (in particular 1 to 3) mean a good to very good herbicidal action. The settings on record: 2000 g of active substance/ha, sprayed immediately after sowing, evaluated after 3 weeks, ratings scale of nine levels. As to the method:
as §1, §2

For experiment [3], the system named is Setaria. The description is as above. On the set-up: key: 1=complete damage; 9=no action; Ratings of 1 to 4 (in particular 1 to 3) mean a good to very good herbicidal action. The following applies: 2000 g of active substance/ha, sprayed immediately after sowing, evaluated after 3 weeks, ratings scale of nine levels. As to the method: as §1, §2
The subject of experiment [4] is Sinapis. The experiment can be described thus: Post-emergent herbicidal action (contact herbicide). On the set-up: key: 1=complete damage; 9=no action; Ratings of 1 to 4 (in particular 1 to 3) mean a good to very good herbicidal action. The following applies: 2000 g of active substance/ha, sprayed in the 4- to 6-leaf stage, evaluated after about 18 days, ratings scale 1-9. How it is done:
(§3) Monocotyledon and dicotyledon test plants are grown in plastic pots with standard soil in a greenhouse and, in the 4- to 6-leaf stage, are sprayed with an aqueous suspension of the test substances of the formula 1, prepared from a 25% wettable power (Example F3, b)), corresponding to a dosage of 2000 g of active substance/ha (500 l of water/ha). The test plants are then grown further in the greenhouse under optimum conditions. After a test period of about 18 days, the test is evaluated with a ratings scale of 9 levels (1=complete damage, 9=no action). Ratings of 1 to 4 (in particular 1 to 3) mean a good to very good herbicidal action.
(§4) Test plants: Sinapis, Stellaria

Experiment [5] concerns Stellaria. The experiment is described as above. More on the design: key: 1=complete damage; 9=no action; Ratings of 1 to 4 (in particular 1 to 3) mean a good to very good herbicidal action. The settings on record: 2000 g of active substance/ha, sprayed in the 4- to 6-leaf stage, evaluated after about 18 days, ratings scale 1-9. As to the method: as §3, §4
For experiment [6], the system named is Avena. As to the kind of experiment: Herbicidal action before emergence of the plants (pre-emergent action). The following applies: 2000 g of active substance/ha, sprayed immediately after sowing, evaluated after 3 weeks, ratings scale of nine levels (1=complete damage, 9=no action). How it is done:
as §1, §2

Consider `NC1=NC(Oc2c(F)c(F)c(F)c(F)c2F)=NS(OC2CCCCCCC2)=N1` (stereo not drawn) [5.176], for which, in experiment [1], the “Pre-emergent action, rating, Sinapis” value is 1. For the same compound, in experiment [2], the “Pre-emergent action, rating, Stellaria” value amounted to 1. Moreover, the “Pre-emergent action, rating, Setaria” value in experiment [3] was determined as 2. The “Post-emergent action, rating, Sinapis” value in experiment [4] came out at 2. The “Post-emergent action, rating, Stellaria” value in experiment [5] came out at 2. For the same compound, the “Pre-emergent action, rating, Avena” value in experiment [6] amounted to 4.

In the case of `C[Si](C)(C)COS1=NC(N)=NC(Oc2c(F)c(F)c(F)c(F)c2F)=N1` (stereo not drawn) [5.321], the “Pre-emergent action, rating, Sinapis” value in experiment [1] was found to be 1. Also, the “Pre-emergent action, rating, Stellaria” value in experiment [2] was determined as 1. The “Pre-emergent action, rating, Setaria” value in experiment [3] was found to be 1. In addition, in experiment [4], the “Post-emergent action, rating, Sinapis” value is given as 2. In addition, the “Post-emergent action, rating, Stellaria” value in experiment [5] was found to be 2. Besides, the “Pre-emergent action, rating, Avena” value in experiment [6] worked out at 3.

On to `CC1CCC(OS2=NC(N)=NC(Oc3c(F)c(F)c(F)c(F)c3F)=N2)CC1` (stereo not drawn) [5.326], for which, in experiment [1], the “Pre-emergent action, rating, Sinapis” value stood at 1. In addition, the “Pre-emergent action, rating, Stellaria” value in experiment [2] was 1. The “Pre-emergent action, rating, Setaria” value in experiment [3] was found to be 4. For the same compound, the “Post-emergent action, rating, Sinapis” value in experiment [4] stood at 2. Also, the “Post-emergent action, rating, Stellaria” value in experiment [5] stood at 4. Further, the “Pre-emergent action, rating, Avena” value in experiment [6] is reported as 4.

On to `CC(OS1=NC(N)=NC(Oc2c(F)c(F)c(F)c(F)c2F)=N1)[Si](C)(C)C` (stereo not drawn) [5.329], for which, in experiment [1], the “Pre-emergent action, rating, Sinapis” value came out at 1. The “Pre-emergent action, rating, Stellaria” value in experiment [2] amounted to 1. The “Pre-emergent action, rating, Setaria” value in experiment [3] stood at 1. Also, the “Post-emergent action, rating, Sinapis” value in experiment [4] was determined as 1. Further, the “Post-emergent action, rating, Stellaria” value in experiment [5] came to 5. Besides, the “Pre-emergent action, rating, Avena” value in experiment [6] was found to be 2.

`CCCC(CC)OS1=NC(N)=NC(Oc2c(F)c(F)c(F)c(F)c2F)=N1` (stereo not drawn) [5.332]: the “Pre-emergent action, rating, Sinapis” value in experiment [1] was determined as 1. In experiment [2], the “Pre-emergent action, rating, Stellaria” value was 1. Moreover, the “Pre-emergent action, rating, Setaria” value in experiment [3] was found to be 1. Also, the “Post-emergent action, rating, Sinapis” value in experiment [4] was 1. Further, the “Post-emergent action, rating, Stellaria” value in experiment [5] is listed as 2. Also, the “Pre-emergent action, rating, Avena” value in experiment [6] turned out to be 3.

For `CCC1CCCCN1S1=NC(N)=NC(Oc2c(F)c(F)c(F)c(F)c2F)=N1` (stereo not drawn) [6.30], in experiment [1], the “Pre-emergent action, rating, Sinapis” value came to 1. For the same compound, in experiment [2], the “Pre-emergent action, rating, Stellaria” value is listed as 1. Further, the “Pre-emergent action, rating, Setaria” value in experiment [3] is recorded as 2. The “Post-emergent action, rating, Sinapis” value in experiment [4] was 2. Also, in experiment [5], the “Post-emergent action, rating, Stellaria” value amounted to 3. Moreover, the “Pre-emergent action, rating, Avena” value in experiment [6] is 3.

On to `CC1(C)CCCN(S2=NC(N)=NC(Oc3c(F)c(F)c(F)c(F)c3F)=N2)C1` (stereo not drawn) [6.34], for which, in experiment [1], the “Pre-emergent action, rating, Sinapis” value was 1. The “Pre-emergent action, rating, Stellaria” value in experiment [2] was 1. Further, in experiment [3], the “Pre-emergent action, rating, Setaria” value was found to be 1. Besides, the “Post-emergent action, rating, Sinapis” value in experiment [4] is on record as 2. Also, in experiment [5], the “Post-emergent action, rating, Stellaria” value was found to be 2. The “Pre-emergent action, rating, Avena” value in experiment [6] was 3.

In the case of `NC1=NC(Oc2c(F)c(F)c(F)c(F)c2F)=NS(N2CCCC3CCCCC32)=N1` (stereo not drawn) [6.37], the “Pre-emergent action, rating, Sinapis” value in experiment [1] was found to be 1. In addition, the “Pre-emergent action, rating, Stellaria” value in experiment [2] was 1. In experiment [3], the “Pre-emergent action, rating, Setaria” value was found to be 2. Also, in experiment [4], the “Post-emergent action, rating, Sinapis” value was 3. In addition, the “Post-emergent action, rating, Stellaria” value in experiment [5] is on record as 2. Moreover, in experiment [6], the “Pre-emergent action, rating, Avena” value was found to be 3.

On to `NC1=NS(N2CCCCCC2)=NC(Oc2c(F)c(F)cc(F)c2F)=N1` (stereo not drawn) [6.89], for which the “Pre-emergent action, rating, Sinapis” value in experiment [1] is listed as 1. In addition, in experiment [2], the “Pre-emergent action, rating, Stellaria” value stood at 1. Besides, in experiment [3], the “Pre-emergent action, rating, Setaria” value stood at 2. In addition, in experiment [4], the “Post-emergent action, rating, Sinapis” value is given as 2. In addition, the “Post-emergent action, rating, Stellaria” value in experiment [5] worked out at 3. Besides, the “Pre-emergent action, rating, Avena” value in experiment [6] turned out to be 2.

Turning to `CC1CC(C)CN(S2=NC(N)=NC(Oc3c(F)c(F)c(F)c(F)c3F)=N2)C1` (stereo not drawn) [6.124], in experiment [1], the “Pre-emergent action, rating, Sinapis” value is 1. For the same compound, the “Pre-emergent action, rating, Stellaria” value in experiment [2] was 1. Moreover, in experiment [3], the “Pre-emergent action, rating, Setaria” value worked out at 1. In addition, in experiment [4], the “Post-emergent action, rating, Sinapis” value worked out at 2. In addition, in experiment [5], the “Post-emergent action, rating, Stellaria” value was 3. Further, in experiment [6], the “Pre-emergent action, rating, Avena” value came out at 3.
